We go through 4 molecules from publication PMC10643420, “A glutamate-gated chloride channel as the mite-specific target-site of dicofol and other diphenylcarbinol acaricides” (Communications Biology, 2023).

What all share (format): cell-based
Test [1] addresses T1, TuGluCl3 (glutamate-gated chloride channel 3) (Tetranychus urticae, UniProt T1KFH0).
T1 construct: gene 107363680; homomeric WT TuGluCl3 receptor expressed in Xenopus laevis oocytes
T1 sequence (T1KFH0 36-542): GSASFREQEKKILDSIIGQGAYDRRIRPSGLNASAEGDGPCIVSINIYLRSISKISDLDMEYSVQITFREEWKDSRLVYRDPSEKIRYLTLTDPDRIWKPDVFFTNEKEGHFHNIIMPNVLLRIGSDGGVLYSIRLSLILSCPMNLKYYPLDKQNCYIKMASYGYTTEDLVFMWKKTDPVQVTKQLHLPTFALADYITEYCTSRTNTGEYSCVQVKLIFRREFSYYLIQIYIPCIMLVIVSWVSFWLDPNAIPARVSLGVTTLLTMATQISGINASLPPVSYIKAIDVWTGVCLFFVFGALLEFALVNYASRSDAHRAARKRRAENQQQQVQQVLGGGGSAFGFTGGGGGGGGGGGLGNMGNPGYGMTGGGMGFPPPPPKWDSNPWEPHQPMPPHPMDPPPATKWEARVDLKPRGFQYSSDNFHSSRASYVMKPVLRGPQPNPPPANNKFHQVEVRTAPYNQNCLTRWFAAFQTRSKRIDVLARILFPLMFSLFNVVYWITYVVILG
Description: two-electrode voltage clamp in Xenopus oocytes; agonist, also potentiates glutamate currents.

The target in test [2] is T1, TuGluCl3 (glutamate-gated chloride channel 3). The test can be described thus: two-electrode voltage clamp in Xenopus oocytes at […] (natural agonist). For orientation: Two-electrode voltage clamp is typically applied to oocytes expressing channels or transporters.
Test [3] deals with T2, TuGluCl3 (glutamate-gated chloride channel 3) (Tetranychus urticae, UniProt T1KFH0, G326E).
T2 construct: gene 107363680; homomeric TuGluCl3 G326E receptor expressed in Xenopus laevis oocytes
Described as above.

What is called EC50 is the midpoint of the concentration-response curve. On to `OC(c1ccc(Cl)cc1)(c1ccc(Cl)cc1)C(Cl)(Cl)Cl` [dicofol, 2,2,2-trichloro-1,1-bis(4-chlorophenyl)ethanol], for which the EC50 in test [1] was found to be 3.58 µM.

Consider `CCOC(=O)C(O)(c1ccc(Cl)cc1)c1ccc(Cl)cc1` [chlorobenzilate], for which the EC50 in test [1] worked out at 2.78 µM.

`CC(C)OC(=O)C(O)(c1ccc(Br)cc1)c1ccc(Br)cc1` [bromopropylate]: the EC50 in test [1] was 3.23 µM.

As to `N[C@@H](CCC(=O)O)C(=O)O` [L-glutamic acid], the “two-electrode voltage clamp in Xenopus oocytes at 500 μM (natural agonist)” value in test [2] and in test [3] was “both TuGluCl3 receptors showed clear responses to L-Glu” each time.
